In patent US7101848B2, “Bicyclic oligopeptides” (Boehringer Ingelheim Pharma GmbH & Co. KG, priority 2002, dated 2006):
Values after ≈ are worked out from the molar mass of the structure shown. Where a SMILES comes first, the peptide text is derived from it. Bridges are numbered along the chain shown (N, C = ends).

Assays:
[1] = Metabolic stability with rat liver microsomes; assay type: in vitro ADME; conditions: Rat Micros; substrate 1 μM, 37° C., up to 45 min
Procedure: (§1) Incubations with preparations of microsomes and cytosol and with plasma under conditions as described below are suitable to investigate the metabolic stability of test compounds (e.g. oxidative metabolism reactions and hydrolysis by esterases). The metabolic stability of the test compounds of examples 1 and 2 is investigated in liver microsomes and cytosol of humans, dogs and rats and in plasma of humans and rats.
(§2) Incubations of test compounds (final concentration: 1 μM) are performed with liver microsomes and cytosol (0.5 mg protein/ml) in Tris buffer (Tris-(hydroxymethyl)-aminomethane) pH 7.4 (0.1 M) containing magnesium chloride (5 mM) at 37° C. for up to 45 min in a total volume of 100 μl. The reaction is initiated by addition of β-nicotinamide adenine dinucleotide phosphate, reduced form (NADPH, 1 mM) and terminated by addition of acetonitrile. After vortex mixing and centrifugation the supernatants are analyzed.
(§3) The samples are analyzed by on-line solid phase extraction and reversed phase HPLC coupled to electro-spray ionization tandem mass spectrometry. The measurements are performed on a triple quad mass spectrometer Quattro II (Micromass, Manchester, UK). The instrument operates at nominal mass resolution in SIR-mode. The analytes are quantified by detection of their quasimolecular ions [M+2H]^2+ m/z 1019 (Example 1) and m/z 1026 (Example 2).

[2] = Metabolic stability with rat liver cytosol; assay type: in vitro ADME; conditions: 37° C., up to 45 min
Procedure: as §1, §2, §3

Solubility in buffer = assay type: physicochemical
Source text: and the following solubilities:

[3] = Metabolic stability with dog liver microsomes; assay type: in vitro ADME; conditions: Dog Micros; substrate 1 μM, 37° C., up to 45 min
Procedure: as §1, §2, §3

[4] = Metabolic stability with human liver cytosol; assay type: in vitro ADME; conditions: 37° C., up to 45 min
Procedure: as §1, §2, §3

[5] = Metabolic stability with dog liver cytosol; assay type: in vitro ADME; conditions: 37° C., up to 45 min
Procedure: as §1, §2, §3

Stability in rat plasma = assay type: in vitro ADME; conditions: substrate 1 μM, 37° C., up to 45 min
Procedure: as §1
(§4) Incubations of test substrates (final concentration: 1 μM) are performed with human and rat plasma (heparin) containing 0.1 M Tris buffer pH 7.4. The reaction is initiated by addition of the test compound at 37° C. for up to 45 min and terminated by addition of acetonitrile. After vortex mixing and centrifugation the supernatants are analyzed.
as §3

[6] = Stability in human plasma; assay type: in vitro ADME; conditions: plasma (heparin), pH 7.4, substrate 1 μM, 37° C., up to 45 min, read-out: Half-lives (t½)
Procedure: as §1, §4, §3

[7] = Metabolic stability with human liver microsomes; assay type: in vitro ADME; conditions: Human Micros; substrate 1 μM, 37° C., up to 45 min
Procedure: as §1, §2, §3

[8] = liver cytosol, pH 7.4, substrate 1 μM, read-out: Half-lives (t½)

Question: With `CC[C@H](C)[C@@H]1NC(=O)[C@@H]2CC(=O)NCC(=O)N[C@@H](CC(C)C)C(=O)N3CCC[C@H]3C(=O)N[C@@H](Cc3c[nH]c4ccccc34)C(=O)NCC(=O)N[C@@H](CSSC[C@@H](C(=O)O)NC(=O)[C@H](C)NC(=O)[C@H](Cc3c[nH]c4ccccc34)NC(=O)[C@@H]3CCCN3C(=O)[C@H]([C@@H](C)O)NC(=O)[C@H](CC(N)=O)NC(=O)[C@H](Cc3c[nH]c4ccccc34)NC(=O)CNC(=O)[C@@H]3CCCN3C1=O)C(=O)N1CCC[C@H]1C(=O)N[C@@H](CO)C(=O)N2` [Example 1] (GLPWGCPSDIPGWNTPWAC-OH; disulfide 6-19; lactam N-9) as the molecule, how does the “Half-lives (t½)” value [1] read?
Answer: The value was “stable”.

Question: And the “Half-lives (t½)” value ([2]; substrate 1 μM)?
Answer: Its value is “stable”.

Question: And the solubility (Solubility in buffer; Buffer pH 3.0)?
Answer: The solubility was 3 µg/mL (≈ 1.47 µM).

Question: What about the solubility (Solubility in buffer; Buffer pH 7.4) of the same molecule?
Answer: Its solubility is 120 µg/mL (≈ 58.9 µM).

Question: What about the solubility (Solubility in buffer; Buffer pH 10.0) of the same molecule?
Answer: The solubility was 92 µg/mL (≈ 45.2 µM).

Question: And the “Half-lives (t½)” value [3]?
Answer: Its value is “stable”.

Question: What about the “Half-lives (t½)” value ([4]; substrate 1 μM) of the same molecule?
Answer: Its value is “stable”.

Question: And the “Half-lives (t½)” value ([5]; substrate 1 μM)?
Answer: The value was “stable”.

Question: What about the “Half-lives (t½)” value (Stability in rat plasma) of the same molecule?
Answer: Its value is “stable”.

Question: And the half-life at 1 μM [6]?
Answer: The half-life at 1 μM was 3.03 h.

Question: What about the “Half-lives (t½)” value [7] of the same molecule?
Answer: Its value is “stable”.

Question: What does the source list for `CC[C@H](C)[C@@H]1NC(=O)[C@@H]2CC(=O)NCC(=O)N[C@@H](CC(C)C)C(=O)N3CCC[C@H]3C(=O)N[C@@H](Cc3c[nH]c4ccccc34)C(=O)NCC(=O)N[C@@H](CSSC[C@@H](C(=O)OC)NC(=O)[C@H](C)NC(=O)[C@H](Cc3c[nH]c4ccccc34)NC(=O)[C@@H]3CCCN3C(=O)[C@H]([C@@H](C)O)NC(=O)[C@H](CC(N)=O)NC(=O)[C@H](Cc3c[nH]c4ccccc34)NC(=O)CNC(=O)[C@@H]3CCCN3C1=O)C(=O)N1CCC[C@H]1C(=O)N[C@@H](CO)C(=O)N2` [Example 2] (GLPWGCPSDIPGWNTPWAC-OMe; disulfide 6-19; lactam N-9)?
Answer: Half-lives (t½) [1]: stable; half-life at 1 μM [2, 8]: 1.22 h; solubility (Solubility in buffer; Buffer pH 3.0): 3 µg/mL (≈ 1.46 µM); solubility (Solubility in buffer; Buffer pH 7.4): 2 µg/mL (≈ 0.975 µM); solubility (Solubility in buffer; Buffer pH 10.0): 4 µg/mL (≈ 1.95 µM); Half-lives (t½) [3]: stable; half-life at 1 μM [4, 8]: 2.03 h; half-life at 1 μM [5, 8]: 2.33 h; Half-lives (t½) (Stability in rat plasma): stable; half-life at 1 μM [6]: 3 h; Half-lives (t½) [7]: stable
